One experiment concerns calcium channel. Kind of experiment: Calcium antagonism (KCl-induced calcium ion influx, Fura 2-AM). The experiment is classed as cell-based, mouse. Conditions: Neuro-2a cells; 0, 1, 10, 100 and 1,000 nM, 30 minutes; potassium chloride 60 mM. The method, then:
The compounds prepared in Examples were evaluated for calcium channel blocking activity. Specifically, at first, Neuro-2a cells, mouse-derived neuroblastoma cell line, were cultured in a serum-free medium, and Fura 2-AM (Dojindo Laboratories) that is a calcium ion probe, was added to the medium so that it was taken up by the cells.
Subsequently, after replacing the medium with HEPES buffer (pH 7.4), each compound was each added at final concentrations of 0, 1, 10, 100 and 1,000 nM and the mixtures were incubated for 30 minutes.
Then, depolarization stimulation was applied with potassium chloride (final concentration 60 mM), and the influx of calcium ions into the cells was measured by fluorescence microscopy.
FIGS. 4(a) and (b) are graphs that illustrate the results of measurement of increase in intracellular calcium ion concentration induced by potassium chloride stimulation. Δratio on the vertical axis is expressed by formula (F1) below and represents a value that reflects the intracellular calcium ion concentration.
A ratio=(fluorescence intensity at fluorescence wavelength of 510 nm against an excitation wavelength of 340 nm)/(fluorescence intensity at fluorescence wavelength of 510 nm against an excitation wavelength of 380 nm) Formula (F1)

Experiment [1] has as its system cardiomyocytes derived from neonatal rats. The experiment can be described thus: Inhibitory effect on mitochondrial hyperfission by hypoxic stimulation. Conditions: 0.3 μM, 1 hour preincubation, 18 hours hypoxic environment; compared with cilnidipine positive control. The experiment is classed as cell-based, rat. As to the method: A system for evaluating quantitatively the degree of mitochondrial division in cells was constructed. Specifically, cardiomyocytes derived from neonatal rats were cultured under either normoxia (20%) or hypoxia (1%) for 16 hours. Subsequently, the cells were stained with a fluorescent dye (MitoTracker Green FM, Thermo Fisher Scientific) that selectively stains mitochondria. Then, the mitochondria were observed under a fluorescence microscope, and the mitochondrial morphology was quantitatively measured by image analysis.
FIGS. 2(a) and (b) are each a micrograph and an image explaining a method for quantitatively measuring mitochondrial morphology by image analysis. FIG. 2(a) is a representative fluorescence micrograph showing the general morphology of mitochondria. FIG. 2(b) is an image obtained by filtering the photograph in FIG. 2(a) and extracting the shape of the mitochondria. Image analysis was performed based on the image in FIG. 2(b) to quantify the lengths of mitochondrial fragments. For the quantification, in order to classify the mitochondria into vesicle-shaped, intermediate-shaped and tube-shaped, <3.5 μm is set for vesicle-shaped, 3.6 μm<length<4.2 μm is set for intermediate-shaped, and >4.2 μm is set for tube-shaped, respectively, as thresholds.
The system for evaluation constructed in Test Example 1 was used to evaluate the mitochondrial hyperfission inhibitory effects of the compounds prepared in Examples.
Specifically, at first, each compound was added to the culture medium of cardiomyocytes derived from neonatal rats at a final concentration of 0.3 μM, and the mixture was incubated for 1 hour.
Then, each cells were cultured for an additional 18 hours in a hypoxic environment. Subsequently, mitochondria were stained with MitoTracker Green FM (Thermo Fisher Scientific) or anti-pyruvate dehydrogenase antibody (Abcam) and observed under a fluorescence microscope to quantitatively measure the morphology of mitochondria. For comparison, a group involving cilnidipine as a positive control and a group involving dimethyl sulfoxide (DMSO) as a negative control were also prepared.

For experiment [2] the test system is unchanged. Kind of experiment: Inhibitory effect on aging of cardiomyocytes under hypoxic stimulation (β-galactosidase, SPiDER-βGAL). The experiment is classed as cell-based, rat. Conditions: 1 μM, 1 hour preincubation, 16 hours normoxia (20%) or hypoxia (1%); compared with cilnidipine. As to the method:
The compounds prepared in Examples were investigated for effects on the aging of cardiomyocytes. The aging of cardiomyocytes was evaluated by detecting β-galactosidase, one of the aging markers.
Specifically, DOJINDO's cell aging detection kit-SPiDER-βGAL was used for detection according to the attached protocol. Each compound was added to the culture medium of cardiomyocytes derived from neonatal rats at a final concentration of 1 μM and the medium were incubated for 1 hour. Then, the medium was cultured for 16 hours under normoxia (20%) or hypoxia (1%). Subsequently, Bafilomycin A1, which inhibits endogenous β-galactosidase activity, was added and the medium was incubated for 1 hour. After washing the cells with a medium, SPiDER-βGAL was added thereto and the mixture was incubated for 30 minutes. After removing the supernatant, HEPES buffer (pH 7.4) was added thereto and the cells were observed under a fluorescence microscope to detect β-galactosidase in the aging cells. For comparison, a group involving cilnidipine as a positive control and a group involving dimethylsulfoxide (DMSO) as a negative control were prepared.
Arrowheads indicate the β-galactosidase-positive cells.

A further experiment deals with Drp1-filamin complex. Conditions: Non-Patent Document 6; cited from earlier work.

Here are results for 17 compounds from patent publication US20240002343A1, “COMPOUNDS HAVING INHIBITORY EFFECT ON MITOCHONDRIAL HYPERFISSION” (KYUSHU UNIVERSITY, NATIONAL UNIVERSITY CORPORATION, priority 2020, published 2024).

On to `Cc1nc(C)c2c(=O)[nH]c3ccccc3c2c1C(=O)O` [Compound 14, 2,4-dimethyl-5-oxo-5,6-dihydrobenzo[c][2,7]naphthyridine-1-carboxylic acid], for which the “Ca2+ antagonism (increase in intracellular calcium ion concentration induced by potassium chloride stimulation)” value in the experiment on calcium channel was “no Ca2+ antagonism”. Besides, in experiment [1], the “mitochondrial hyperfission inhibitory effect (percentage of cells with vesicle-shaped mitochondria)” value is “the same as or more effect of cilnidipine”.

As to `COCCOC(=O)C1=C(C)NC(C)=C(C(=O)OCCC#N)C1c1cccc([N+](=O)[O-])c1` (stereo not drawn) [Compound 18, 3-(2-cyanoethyl) 5-(2-methoxyethyl) 2,6-dimethyl-4-(3-nitrophenyl)-1,4-dihydropyridine-3,5-dicarboxylate], the “Ca2+ antagonism (increase in intracellular calcium ion concentration induced by potassium chloride stimulation)” value with calcium channel is “no Ca2+ antagonism”. The “mitochondrial hyperfission inhibitory effect (percentage of cells with vesicle-shaped mitochondria)” value in experiment [1] is “the same as or more effect of cilnidipine”.

Consider `COCCOC(=O)c1c(C)nc(C)c2c(=O)n(-c3cccc(OC)c3)c3ccccc3c12` [Compound 17a, 2-Methoxyethyl 6-(3-methoxyphenyl)-2,4-dimethyl-5-oxo-5,6-dihydrobenzo[c][2,7]naphthyridine-1-carboxylate], for which the “Ca2+ antagonism (increase in intracellular calcium ion concentration induced by potassium chloride stimulation)” value in the experiment on calcium channel was “no Ca2+ antagonism”. Further, the “mitochondrial hyperfission inhibitory effect (percentage of cells with vesicle-shaped mitochondria)” value in experiment [1] is recorded as “the same as or more effect of cilnidipine”.

`COCCOC(=O)c1c(C)nc(C)c(C(=O)Nc2cccc(C(=O)O)c2)c1-c1ccccc1` [Compound 25, 3-(5-((2-methoxyethoxy)carbonyl)-2,6-dimethyl-4-phenylnicotinamido)benzoic acid]: the “mitochondrial hyperfission inhibitory effect (percentage of cells with vesicle-shaped mitochondria)” value in experiment [1] is recorded as “the same as or more effect of cilnidipine”.

Regarding `COCCOC(=O)c1c(C)nc(C)c(C(=O)Nc2cccc(C(=O)OC)c2)c1-c1ccccc1` [Compound 26, 2-Methoxyethoxy 5-((3-(methoxycarbonyl)phenyl)carbamoyl)-2,6-dimethyl-4-phenylnicotinate], the “mitochondrial hyperfission inhibitory effect (percentage of cells with vesicle-shaped mitochondria)” value in experiment [1] is given as “the same as or more effect of cilnidipine”.

As for `COCCOC(=O)c1c(C)nc(C)c2c(=O)n(C)c3ccccc3c12` [Compound 10a, 2-Methoxyethyl 2,4,6-trimethyl-5-oxo-5,6-dihydrobenzo[c][2,7]naphthyridine-1-carboxylate], the “mitochondrial hyperfission inhibitory effect (percentage of cells with vesicle-shaped mitochondria)” value in experiment [1] is listed as “the same as or more effect of cilnidipine”.

As to `COCCOC(=O)c1c(C)nc(C)c2c(=O)n(-c3cccc(C(=O)OC(C)(C)C)c3)c3ccccc3c12` [Compound 17c, 2-Methoxyethyl 6-(3-(tert-butoxycarbonyl)phenyl)-2,4-dimethyl-5-oxo-5,6-dihydrobenzo[c][2,7]naphthyridine-1-carboxylate], the “mitochondrial hyperfission inhibitory effect (percentage of cells with vesicle-shaped mitochondria)” value in experiment [1] was “the same as or more effect of cilnidipine”.

With `COCCOC(=O)C1=C(C)NC(C)=C(C(=O)NCc2ccccc2)C1c1cccc([N+](=O)[O-])c1` (stereo not drawn) [Compound 20a, 2-Methoxyethyl 5-(benzylcarbamoyl)-2,6-dimethyl-4-(3-nitrophenyl)-1,4-dihydropyridine-3-carboxylate], the “Ca2+ antagonism (increase in intracellular calcium ion concentration induced by potassium chloride stimulation)” value in the experiment on calcium channel is recorded as “no Ca2+ antagonism”. Moreover, in experiment [1], the “mitochondrial hyperfission inhibitory effect (percentage of cells with vesicle-shaped mitochondria)” value is “the same as or more effect of cilnidipine”.

As to `COCCOC(=O)C1=C(C)NC(C)=C(C(=O)Nc2cccc(C(=O)OCCC#N)c2)C1c1ccccc1` (stereo not drawn) [Compound 30, 2-Methoxyethyl 5-((3-((2-cyanoethoxy)carbonyl)phenyl)carbamoyl)-2,6-dimethyl-4-phenyl-1,4-dihydropyridine-3-carboxylate], the “mitochondrial hyperfission inhibitory effect (percentage of cells with vesicle-shaped mitochondria)” value in experiment [1] is “the same as or more effect of cilnidipine”.

Take `COCCOC(=O)c1c(C)nc(C)c(C(=O)NCCCc2ccncc2)c1-c1ccccc1[N+](=O)[O-]` [Compound 4f, 2-Methoxyethyl 2,6-dimethyl-4-(2-nitrophenyl)-5-((3-(pyridin-4-yl)propyl)carbamoyl)nicotinate]: the “Ca2+ antagonism (increase in intracellular calcium ion concentration induced by potassium chloride stimulation)” value with calcium channel is recorded as “no Ca2+ antagonism”. Besides, the “mitochondrial hyperfission inhibitory effect (percentage of cells with vesicle-shaped mitochondria)” value in experiment [1] was “the same as or more effect of cilnidipine”. In experiment [2], the “suppressive effect on aging (β-galactosidase-positive cells)” value was “suppressive effect on aging that is the same as cilnidipine”.

Consider `COCCOC(=O)C1=C(C)NC(C)=C(C(=O)Nc2cccc(C(=O)O)c2)C1c1ccccc1` (stereo not drawn) [Compound 31, 3-(5-((2-methoxyethoxy)carbonyl)-2,6-dimethyl-4-phenyl-1,4-dihydropyridine-3-carboxamido)benzoic acid], for which, in experiment [1], the “mitochondrial hyperfission inhibitory effect (percentage of cells with vesicle-shaped mitochondria)” value is “the same as or more effect of cilnidipine”.

For `COCCOC(=O)c1c(C)nc(C)c(C(=O)O)c1-c1ccccc1[N+](=O)[O-]` [Compound 6, 5-((2-methoxyethoxy)carbonyl)-2,6-dimethyl-4-(2-nitrophenyl)nicotinic acid], in the experiment with calcium channel, the “Ca2+ antagonism (increase in intracellular calcium ion concentration induced by potassium chloride stimulation)” value was “no Ca2+ antagonism”. Besides, the “mitochondrial hyperfission inhibitory effect (percentage of cells with vesicle-shaped mitochondria)” value in experiment [1] is given as “the same as or more effect of cilnidipine”.

As to `COCCOC(=O)c1c(C)nc(C)c(C(=O)Nc2cccc(C(=O)OC(C)(C)C)c2)c1-c1ccccc1` [Compound 24, 2-Methoxyethoxy 5-((3-(tert-butoxycarbonylcarbonyl)phenyl)carbamoyl)-2,6-dimethyl-4-phenylnicotinate], the “mitochondrial hyperfission inhibitory effect (percentage of cells with vesicle-shaped mitochondria)” value in experiment [1] is reported as “the same as or more effect of cilnidipine”.

For `COCCOC(=O)c1c(C)nc(C)c2c(=O)n(Cc3ccccc3)c3ccccc3c12` [Compound 10b, 2-Methoxyethyl 6-benzyl-2,4-dimethyl-5-oxo-5,6-dihydrobenzo[c][2,7]naphthyridine-1-carboxylate], the “mitochondrial hyperfission inhibitory effect (percentage of cells with vesicle-shaped mitochondria)” value in experiment [1] is listed as “the same as or more effect of cilnidipine”.

On to `COCCOC(=O)C1=C(C)NC(C)=C(C(=O)OC/C=C/c2ccccc2)C1c1cccc([N+](=O)[O-])c1` (stereo not drawn) [Cilnidipine], for which the “inhibition of formation of the Drp1-filamin complex” value in the experiment with Drp1-filamin complex was “inhibit formation of the Drp1-filamin complex”.

With `COCCOC(=O)C1=C(C)NC(C)=C(C(=O)Nc2ccc(OC)cc2)C1c1ccccc1` (stereo not drawn) [Compound 16b, 2-Methoxyethyl 5-((4-methoxyphenyl)carbamoyl)-2,6-dimethyl-4-phenyl-1,4-dihydropyridine-3-carboxylate], in the experiment on calcium channel, the “Ca2+ antagonism (increase in intracellular calcium ion concentration induced by potassium chloride stimulation)” value is “no Ca2+ antagonism”. Moreover, the “mitochondrial hyperfission inhibitory effect (percentage of cells with vesicle-shaped mitochondria)” value in experiment [1] was “the same as or more effect of cilnidipine”.

In the case of `COCCOC(=O)C1=C(C)NC(C)=C(C(=O)O)C1c1ccccc1[N+](=O)[O-]` (stereo not drawn) [Compound 2, 5-((2-methoxyethoxy)carbonyl)-2,6-dimethyl-4-(2-nitrophenyl)-1,4-dihydropyridine-3-carboxylic acid], in the experiment with calcium channel, the “Ca2+ antagonism (increase in intracellular calcium ion concentration induced by potassium chloride stimulation)” value is “no Ca2+ antagonism”. For the same compound, in experiment [1], the “mitochondrial hyperfission inhibitory effect (percentage of cells with vesicle-shaped mitochondria)” value was “the same as or more effect of cilnidipine”. Besides, in experiment [2], the “suppressive effect on aging (β-galactosidase-positive cells)” value is on record as “suppressive effect on aging that is the same as cilnidipine”.
